Columns and labels:
Colletotricum lagenarium = test: Cucumber Anthracnose greenhouse one-day protectant test; format: in vivo; details: Cucumis sativus, 24 h, cucumber plants, one-day protectant test, 200 ppm application rate; read-out: COLLLA percent control rating
[1] = system: Puccinia recondita tritici; test: Leaf Rust of Wheat greenhouse one-day protectant test; format: in vivo; details: 24 h, wheat plants, one-day protectant test, 200 ppm application rate, read-out: PUCCRT percent control rating
Leptosphaeria nodorum = test: Glume Blotch of Wheat greenhouse one-day protectant test; format: in vivo; details: Parastagonospora nodorum, 24 h; wheat plants, one-day protectant test, 200 ppm application rate; read-out: LEPTNO percent control rating
Erysiphe cichoracaerum = test: Cucumber Powdery Mildew greenhouse one-day protectant test; format: in vivo; details: 24 h, cucumber plants, one-day protectant test, 200 ppm application rate, read-out: ERYSCI percent control rating
Phytophthora infestans = test: whole plant or invertebrate; format: in vivo; details: in Solanum lycopersicum, 24 h, read-out: PHYTIN percent control rating, tomato plants, one-day protectant test, 200 ppm application rate
Pyricularia oryzae = test: whole plant or invertebrate; format: in vivo; details: 24 h, read-out: PYRIOR percent control rating

Row | Structure (SMILES) | pest or weed control at 200 ppm (Colletotricum lagenarium) [%] | pest or weed control at 200 ppm [1] [%] | pest or weed control at 200 ppm (Leptosphaeria nodorum) [%] | pest or weed control at 200 ppm (Erysiphe cichoracaerum) [%] | pest or weed control at 200 ppm (Phytophthora infestans) [%] | pest or weed control at 200 ppm (Pyricularia oryzae) [%] | melting point [°C]
1 | O=c1cnc(-c2cc(Br)cc(-c3ccsc3)c2)nn1CC(F)(F)F [Compound 84, 3-(3-Bromo-5-thien-3-ylphenyl)-1-(2,2,2-trifluoroethyl)-1,2,4-triazin-6(1H)-one] | 50 to 79 | 0 to 49 | 80 to 100 | 0 to 49 | 0 to 49 | 80 to 100 | 180 to 182
2 | O=c1cnc(-c2cccc(Cc3ccccc3)c2)nn1CC(F)(F)F [Compound 91, 3-(3-Benzylphenyl)-1-(2,2,2-trifluoroethyl)-1,2,4-triazin-6(1H)-one] | 80 to 100 | 80 to 100 | 80 to 100 | 80 to 100 | 0 to 49 | 80 to 100 | 95 to 96
3 | CON=C(c1ccccc1)c1cccc(-c2ncc(=O)n(CC(F)(F)F)n2)c1 [Compound 94, 3-{3-[(Z)-(Methoxyimino)phenyl)methyl]phenyl}-1-(2,2,2-trifluoroethyl)-1,2,4-triazin-6(1H)-one] | 0 to 49 | 80 to 100 | 80 to 100 | 0 to 49 | 0 to 49 | 80 to 100 | 127 to 129
4 | O=c1cnc(-c2cccc(C(=NOCc3ccccc3)c3ccccc3)c2)nn1CC(F)(F)F [Compound 95] | 0 to 49 | 0 to 49 | 50 to 79 | 0 to 49 | 0 to 49 | 80 to 100 | 139 to 140
5 | C[Si](C)(C)C#CCn1nc(-c2ccc(F)c(Br)c2)ncc1=O [Compound 96, 3-(3-bromo-4-fluorophenyl)-1-(3-trimethylsilanyl-prop-2-ynyl)-1,2,4-triazin-6(1H)-one] | 50 to 79 | 50 to 79 | 0 to 49 | 0 to 49 | 0 to 49 | 80 to 100 | 103 to 105
